From PMC5513037, “Examining the influence of specificity ligands and ATP-competitive ligands on the overall effectiveness of bivalent kinase inhibitors” (Proteome Science, 2017)

Experiments:
Test in all cases: KAM-matrix competition in K562 lysate;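 on 0.001 uM KAM: median log10 fold change of treatment over DMSO control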;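 on 0.01 uM KAM: median log10 fold change of treatment over DMSO control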;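 on 0.1 uM KAM: median log10 fold change of treatment over DMSO control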;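 on 1 uM KAM: median log10 fold change of treatment over DMSO control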;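 on 10 uM KAM: median log10 fold change of treatment over DMSO control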
Assay type in all cases: binding
MAP2K3 = molecular target: T1, MAP2K3 (Homo sapiens, UniProt P46734);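 on 0.001 uM KAM: median log10 fold change of treatment over DMSO control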;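 on 0.01 uM KAM: median log10 fold change of treatment over DMSO control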;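 on 0.1 uM KAM: median log10 fold change of treatment over DMSO control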;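 on 1 uM KAM: median log10 fold change of treatment over DMSO control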;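 on 10 uM KAM: median log10 fold change of treatment over DMSO control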
T1 construct: endogenous in cells; host or cells: K562 cell lysate
T1 sequence (P46734 1-347): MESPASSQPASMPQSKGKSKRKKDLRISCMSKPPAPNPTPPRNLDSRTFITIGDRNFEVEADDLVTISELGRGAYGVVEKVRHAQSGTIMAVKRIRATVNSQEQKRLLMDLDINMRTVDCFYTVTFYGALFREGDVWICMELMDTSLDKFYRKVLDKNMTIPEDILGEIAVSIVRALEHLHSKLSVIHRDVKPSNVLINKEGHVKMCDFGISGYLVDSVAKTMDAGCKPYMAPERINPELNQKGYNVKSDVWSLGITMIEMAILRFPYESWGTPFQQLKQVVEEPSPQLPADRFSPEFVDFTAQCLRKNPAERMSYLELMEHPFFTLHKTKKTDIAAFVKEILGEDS
Procedure: (§1) Supplement 12953_2017_125_MOESM1_ESM.zip/MS_Supp Info.xlsx, sheet "KAM" | column: 10 uM KAM; 1 uM KAM; 0.1 uM KAM; 0.01 uM KAM; 0.001 uM KAM; RB50

WEE1 = molecular target: T2, WEE1 (Homo sapiens, UniProt P30291)
T2 construct: endogenous in cells; host or cells: K562
Procedure: as §1

DDR1 = molecular target: T3, DDR1 (Homo sapiens, UniProt Q08345)
T3 construct: endogenous in cells; host or cells: K562
Procedure: as §1

UHMK1 = molecular target: T4, UHMK1 (Homo sapiens, UniProt Q8TAS1);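 on 0.001 uM KAM: median log10 fold change of treatment over DMSO control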;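 on 0.01 uM KAM: median log10 fold change of treatment over DMSO control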;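 on 0.1 uM KAM: median log10 fold change of treatment over DMSO control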;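 on 1 uM KAM: median log10 fold change of treatment over DMSO control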;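 on 10 uM KAM: median log10 fold change of treatment over DMSO control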
T4 construct: endogenous in cells; host or cells: K562
T4 sequence (Q8TAS1 1-419): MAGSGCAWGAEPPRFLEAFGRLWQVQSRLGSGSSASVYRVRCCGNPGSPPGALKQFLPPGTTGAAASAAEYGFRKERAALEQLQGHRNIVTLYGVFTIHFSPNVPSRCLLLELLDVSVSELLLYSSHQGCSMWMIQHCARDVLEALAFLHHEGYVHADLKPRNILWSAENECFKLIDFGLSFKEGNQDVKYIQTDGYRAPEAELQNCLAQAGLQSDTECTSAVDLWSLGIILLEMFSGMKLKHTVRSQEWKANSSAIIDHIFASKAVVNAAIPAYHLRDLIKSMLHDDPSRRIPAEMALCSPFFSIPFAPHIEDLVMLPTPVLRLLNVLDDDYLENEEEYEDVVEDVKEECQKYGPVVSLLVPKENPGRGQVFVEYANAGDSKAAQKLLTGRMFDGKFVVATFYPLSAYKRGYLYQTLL
Procedure: as §1

PRKACG = molecular target: T5, PRKACG (Homo sapiens, UniProt P22612);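 on 0.001 uM KAM: median log10 fold change of treatment over DMSO control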;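 on 0.01 uM KAM: median log10 fold change of treatment over DMSO control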;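 on 0.1 uM KAM: median log10 fold change of treatment over DMSO control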;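 on 1 uM KAM: median log10 fold change of treatment over DMSO control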;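 on 10 uM KAM: median log10 fold change of treatment over DMSO control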
T5 construct: endogenous in cells; host or cells: K562
Procedure: as §1

[1] = KAM 0.001-10 uM, read-out: RB50 (the source's name)
[2] = read-out: RB50 (the source's name)

T3 sequence (Q08345 19-913): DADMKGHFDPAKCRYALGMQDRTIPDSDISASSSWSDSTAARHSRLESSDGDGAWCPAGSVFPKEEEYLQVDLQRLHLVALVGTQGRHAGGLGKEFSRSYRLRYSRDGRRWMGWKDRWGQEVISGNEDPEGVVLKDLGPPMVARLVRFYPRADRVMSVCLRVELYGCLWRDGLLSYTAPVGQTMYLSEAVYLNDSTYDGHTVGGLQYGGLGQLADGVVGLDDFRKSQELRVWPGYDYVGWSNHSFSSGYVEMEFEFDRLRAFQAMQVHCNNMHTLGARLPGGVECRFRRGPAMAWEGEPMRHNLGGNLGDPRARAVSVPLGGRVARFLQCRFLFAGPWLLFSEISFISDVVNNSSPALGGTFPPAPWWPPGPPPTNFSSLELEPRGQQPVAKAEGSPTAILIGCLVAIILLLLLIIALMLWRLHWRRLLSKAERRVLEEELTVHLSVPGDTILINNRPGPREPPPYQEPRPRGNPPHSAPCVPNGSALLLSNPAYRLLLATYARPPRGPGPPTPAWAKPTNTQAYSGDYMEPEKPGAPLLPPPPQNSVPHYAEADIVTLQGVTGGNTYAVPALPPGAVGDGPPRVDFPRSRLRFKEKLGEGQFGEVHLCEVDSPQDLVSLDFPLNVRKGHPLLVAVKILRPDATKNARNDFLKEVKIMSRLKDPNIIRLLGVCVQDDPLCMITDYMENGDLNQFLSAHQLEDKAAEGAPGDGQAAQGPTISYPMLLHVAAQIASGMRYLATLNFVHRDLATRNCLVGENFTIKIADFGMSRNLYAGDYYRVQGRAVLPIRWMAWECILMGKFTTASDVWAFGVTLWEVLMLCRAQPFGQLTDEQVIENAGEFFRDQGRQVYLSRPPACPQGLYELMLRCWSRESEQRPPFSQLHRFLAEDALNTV
T5 sequence (P22612 whole entry): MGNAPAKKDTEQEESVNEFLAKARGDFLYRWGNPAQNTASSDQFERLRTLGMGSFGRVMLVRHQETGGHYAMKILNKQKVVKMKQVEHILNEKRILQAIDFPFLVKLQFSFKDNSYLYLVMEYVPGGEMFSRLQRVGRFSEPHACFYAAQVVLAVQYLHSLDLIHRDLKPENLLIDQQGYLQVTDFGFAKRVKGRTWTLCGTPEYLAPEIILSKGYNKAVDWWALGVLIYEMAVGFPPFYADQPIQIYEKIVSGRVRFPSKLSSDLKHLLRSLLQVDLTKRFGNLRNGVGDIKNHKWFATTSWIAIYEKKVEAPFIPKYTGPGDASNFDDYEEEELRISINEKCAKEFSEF
T2 sequence (P30291 whole entry): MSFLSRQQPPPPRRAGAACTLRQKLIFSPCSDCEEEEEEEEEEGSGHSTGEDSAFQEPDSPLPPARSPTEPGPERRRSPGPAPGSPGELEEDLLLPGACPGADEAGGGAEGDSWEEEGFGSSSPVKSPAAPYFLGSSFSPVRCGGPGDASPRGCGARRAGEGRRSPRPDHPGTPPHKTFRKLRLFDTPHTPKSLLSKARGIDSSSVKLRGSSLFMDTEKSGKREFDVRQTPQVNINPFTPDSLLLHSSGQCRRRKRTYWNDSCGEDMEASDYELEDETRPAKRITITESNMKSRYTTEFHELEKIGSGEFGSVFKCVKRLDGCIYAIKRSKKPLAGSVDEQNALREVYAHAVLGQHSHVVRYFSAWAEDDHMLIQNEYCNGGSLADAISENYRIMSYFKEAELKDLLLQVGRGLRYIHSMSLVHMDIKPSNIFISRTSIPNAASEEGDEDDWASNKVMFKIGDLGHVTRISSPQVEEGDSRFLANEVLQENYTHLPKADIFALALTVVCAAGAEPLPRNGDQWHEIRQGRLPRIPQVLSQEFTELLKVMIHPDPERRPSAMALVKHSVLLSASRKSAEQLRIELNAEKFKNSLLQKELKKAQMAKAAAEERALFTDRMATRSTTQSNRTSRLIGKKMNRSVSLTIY

For `N#CCc1ccc(Nc2nc(NCCCN)cc(Nc3cc(C4CC4)[nH]n3)n2)cc1` [KAM], the IC50 (MAP2K3; [1]) was greater than 10000 nM, the “0.001 uM KAM” value (MAP2K3; relative to 0 uM KAM = 0) was 0.005145 and the “0.01 uM KAM” value (MAP2K3; relative to 0 uM KAM = 0) was -0.01205. The “0.1 uM KAM” value (MAP2K3; relative to 0 uM KAM = 0) was -0.0928, the “1 uM KAM” value (MAP2K3; relative to 0 uM KAM = 0) was -0.1584 and the “10 uM KAM” value (MAP2K3; relative to 0 uM KAM = 0) was -0.2828. The “median Log10 fold change” value (WEE1; 0.001 uM KAM) was -0.01698, the “median Log10 fold change” value (WEE1; 0.01 uM KAM) was -0.006292 and the “median Log10 fold change” value (WEE1; 0.1 uM KAM) was -0.1327. For the same compound, the “median Log10 fold change” value (WEE1; 1 uM KAM) was -0.2838, the “median Log10 fold change” value (WEE1; 10 uM KAM) was -0.4489 and the IC50 (WEE1; [2]) was 1320 nM. The “median Log10 fold change” value (DDR1; 0.001 uM KAM) was -0.02436, the “median Log10 fold change” value (DDR1; 0.01 uM KAM) was -0.004539 and the “median Log10 fold change” value (DDR1; 0.1 uM KAM) was -0.13. The “median Log10 fold change” value (DDR1; 1 uM KAM) was -0.3025, the “median Log10 fold change” value (DDR1; 10 uM KAM) was -0.3889 and the IC50 (DDR1; [2]) was 1330 nM. The IC50 (UHMK1; [1]) was greater than 10000 nM, the “0.001 uM KAM” value (UHMK1; relative to 0 uM KAM = 0) was -0.05175 and the “0.01 uM KAM” value (UHMK1; relative to 0 uM KAM = 0) was -0.019. The “0.1 uM KAM” value (UHMK1; relative to 0 uM KAM = 0) was 0.009765, the “1 uM KAM” value (UHMK1; relative to 0 uM KAM = 0) was -0.08212 and the “10 uM KAM” value (UHMK1; relative to 0 uM KAM = 0) was -0.08774. For the same compound, the IC50 (PRKACG; [1]) was greater than 10000 nM, the “0.001 uM KAM” value (PRKACG; relative to 0 uM KAM = 0) was -0.03855 and the “0.01 uM KAM” value (PRKACG; relative to 0 uM KAM = 0) was 0.1471. For the same compound, the “0.1 uM KAM” value (PRKACG; relative to 0 uM KAM = 0) was 0.178, the “1 uM KAM” value (PRKACG; relative to 0 uM KAM = 0) was 0.2462 and the “10 uM KAM” value (PRKACG; relative to 0 uM KAM = 0) was 0.202.
